In ChEMBL document CHEMBL4402608 (J Med Chem, 2020) one finds EC50, IC50 and Emax data, which are given here for 39 compounds.

Assay type in all cases: cell-based
The target of assay [1] is T1, D(2) dopamine receptor (Homo sapiens, UniProt P14416). In words: Agonist activity at human D2R expressed in CHOK1 cells assessed as induction of beta-arrestin recruitment measured after 90 mins by beta-galactosidase based PathHunter assay.
The target in assay [2] is T1, D(2) dopamine receptor. In words: Antagonist activity at human D2R expressed in CHOK1 cells assessed as inhibition of dopamine-induced beta-arrestin recruitment measured after 120 mins by beta-galactosidase based PathHunter assay.
In assay [3] the target is T1, D(2) dopamine receptor. In words: Antagonist activity at human D2R expressed in CHOK1 cells assessed as inhibition of dopamine-induced beta-arrestin recruitment measured after 120 mins by beta-galactosidase based PathHunter assay relative to sulpiride. The conditions noted are these: 2 h, read-out: Imax. (Recruitment of arrestin is a read-out of receptor activation apart from second messengers.)

A further assay deals with D(3) dopamine receptor (Homo sapiens, UniProt P35462). In words: Agonist activity at human D3R expressed in CHOK1 cells assessed as induction of beta-arrestin recruitment measured after 90 mins by beta-galactosidase based PathHunter assay. Particulars: read-out: EC50; call rule not given here.

As usually defined, the EC50 is the concentration needed to bring the measured effect to its halfway point. The IC50 is the midpoint of a concentration-inhibition curve. On to `COc1ccc(C(=O)N2CCN(CCOc3ccc(Cl)cc3)CC2)cc1`, for which, on D(2) dopamine receptor [1], the EC50 result was “Not Active”. The IC50 on D(2) dopamine receptor [2] (read-out: IC50) was > 10000 nM. The Emax at D(2) dopamine receptor [3] stood at 101%.
As for `COc1ccc(OCCN2CCN(C(=O)c3ccc(OC)cc3)CC2C)cc1` (configuration not stated), the values for the EC50 at D(3) dopamine receptor and at D(2) dopamine receptor [1] were 4400 nM and “Not Active”, respectively. Further, the IC50 on D(2) dopamine receptor [2] (read-out: IC50) is > 100000 nM.
Take `CCOc1ccc(OCCN2CCN(C(=O)c3cc4ccccc4[nH]3)CC2)cc1`: the concentration giving a half-maximal response (EC50) is > 100000 nM at D(3) dopamine receptor and “Not Active” on D(2) dopamine receptor [1]. Moreover, the IC50 on D(2) dopamine receptor [2] (read-out: IC50) was > 100000 nM.
Turning to `Cc1ccc(OCCN2CCN(C(=O)c3cc4ccccc4[nH]3)CC2)cc1Cl`, the concentration for a half-maximal effect (EC50) on D(3) dopamine receptor was 997 nM; on D(2) dopamine receptor [1], “Not Active”. Besides, the IC50 entry on D(2) dopamine receptor [2] was “Not Active”.
For the compound `COc1ccc(OCCN2CCN(C(=O)c3nc4ccccc4[nH]3)CC2)cc1`, the values for the EC50 at D(3) dopamine receptor and on D(2) dopamine receptor [1] were 192 nM and “Not Active”, respectively. The half-inhibitory concentration (IC50) on D(2) dopamine receptor [2] (read-out: IC50) is > 50000 nM.
`COc1ccc(OCCN2CCN(C(=O)c3cc4ccccc4[nH]3)CC2)c(Cl)c1`: the EC50 on D(3) dopamine receptor is 41 nM; at D(2) dopamine receptor [1], “Not Active”. Besides, the IC50 at D(2) dopamine receptor [2] (read-out: IC50) was > 10000 nM.
On to `CSc1ccc(OCCN2CCN(C(=O)c3cc4ccccc4[nH]3)CC2)cc1`, for which the EC50 on D(3) dopamine receptor is 630 nM; on D(2) dopamine receptor [1], “Not Active”. Also, the IC50 on D(2) dopamine receptor [2] (read-out: IC50) was > 100000 nM.
Regarding `COc1cccc(OCCN2CCN(C(=O)c3cc4cc(OC)ccc4[nH]3)CC2)c1`, the EC50 on D(3) dopamine receptor was 284 nM; on D(2) dopamine receptor [1] (read-out: EC50), 1700 nM. Moreover, the 50% inhibitory concentration (IC50) entry on D(2) dopamine receptor [2] is given as “Not Active”.
Regarding `COc1ccc(OCCN2CCN(C(=O)c3cc4cnccc4[nH]3)CC2)cc1`, the values for the EC50 on D(3) dopamine receptor and on D(2) dopamine receptor [1] (read-out: EC50) were 576 nM and 5500 nM, respectively. In addition, the IC50 at D(2) dopamine receptor [2] (read-out: IC50) was > 100000 nM.
On the same counts, the results for `Cc1ccc(OCCN2CCN(C(=O)c3cc4ccccc4[nH]3)CC2)cc1` are 151 nM, > 50000 nM and > 100000 nM.
As for `COc1ccc(OCCN2CCN(C(=O)c3cc4ccc(C)cc4[nH]3)CC2)cc1`, the results for the half-maximal effective concentration (EC50) at D(3) dopamine receptor and at D(2) dopamine receptor [1] (read-out: EC50) were 130 nM and 1100 nM, respectively. Moreover, the IC50 entry on D(2) dopamine receptor [2] is “Not Active”.
Consider `O=C(c1cc2ccccc2[nH]1)N1CCN(CCOc2ccc(OC(F)(F)F)cc2)CC1`, for which the figures for the EC50 at D(3) dopamine receptor and at D(2) dopamine receptor [1] (read-out: EC50) were 3800 nM and > 100000 nM, respectively. Moreover, the IC50 on D(2) dopamine receptor [2] (read-out: IC50) is > 100000 nM.
`COc1ccc(OCCN2CCN(C(=O)c3ccccc3)CC2)cc1`: the EC50 is 548 nM at D(3) dopamine receptor and “Not Active” at D(2) dopamine receptor [1]. Further, the half-inhibitory concentration (IC50) on D(2) dopamine receptor [2] (read-out: IC50) is > 50000 nM.
Consider `COc1ccc(OCCN2CCN(C(=O)c3cc4ccccc4[nH]3)CC2)cc1OC`, for which the concentration giving a half-maximal response (EC50) at D(3) dopamine receptor is 710 nM; on D(2) dopamine receptor [1], “Not Active”. For the same compound, the IC50 on D(2) dopamine receptor [2] (read-out: IC50) is > 50000 nM.
For the compound `O=C(c1cc2ccccc2o1)N1CCN(CCOc2cccnc2)CC1`, the EC50 amounted to 42 nM on D(3) dopamine receptor and 1700 nM on D(2) dopamine receptor [1] (read-out: EC50). For the same compound, the IC50 entry on D(2) dopamine receptor [2] is “Not Active”.
For the compound `COc1ccc(OCCN2CCN(C(=O)c3cc4c(Cl)cccc4[nH]3)CC2)cc1`, the concentration for a half-maximal effect (EC50) on D(3) dopamine receptor was 160 nM; on D(2) dopamine receptor [1] (read-out: EC50), 7100 nM. Further, the half-inhibitory concentration (IC50) on D(2) dopamine receptor [2] (read-out: IC50) is > 100000 nM.
As to `COc1ccc(OCCN2CCN(C(=O)c3ccncc3)CC2)cc1`, the EC50 on D(3) dopamine receptor was 22000 nM; on D(2) dopamine receptor [1], “Not Active”. Moreover, the IC50 result on D(2) dopamine receptor [2] is listed as “Not Active”.
`COc1ccc(C(=O)N2CCN(CCOc3cccnc3)CC2)c(C)c1`: the values for the EC50 at D(3) dopamine receptor and on D(2) dopamine receptor [1] (read-out: EC50) were 116 nM and 4600 nM, respectively. Also, at D(2) dopamine receptor [2] (read-out: IC50), the IC50 is > 100000 nM.
Consider `COc1ccc(OCCN2CCN(C(=O)c3cc4cc(C)ccc4[nH]3)CC2)cc1`, for which the EC50 at D(3) dopamine receptor was 611 nM; at D(2) dopamine receptor [1] (read-out: EC50), > 50000 nM. Also, the IC50 at D(2) dopamine receptor [2] (read-out: IC50) was > 100000 nM.
As for `O=C(c1cc2ccccc2[nH]1)N1CCN(CCOc2ccccn2)CC1`, the EC50 at D(3) dopamine receptor is 3500 nM; at D(2) dopamine receptor [1], “Not Active”. Besides, at D(2) dopamine receptor [2] (read-out: IC50), the IC50 is > 100000 nM.
`O=C(c1ccc[nH]1)N1CCN(CCOc2cccnc2)CC1`: the figures for the EC50 at D(3) dopamine receptor and at D(2) dopamine receptor [1] (read-out: EC50) were 118 nM and 6100 nM, respectively. Further, the concentration for half-maximal inhibition (IC50) on D(2) dopamine receptor [2] (read-out: IC50) was > 100000 nM.
Take `COc1ccc(OCCN2CCN(C(=O)c3ccccc3OC)CC2)cc1`: the EC50 at D(3) dopamine receptor was 2500 nM; on D(2) dopamine receptor [1], “Not Active”. For the same compound, the 50% inhibitory concentration (IC50) at D(2) dopamine receptor [2] (read-out: IC50) is > 100000 nM.
Regarding `COc1ccc(OCCN2CCN(C(=O)c3ccc(OC)cn3)CC2)cc1`, the results for the EC50 at D(3) dopamine receptor and on D(2) dopamine receptor [1] (read-out: EC50) were 2100 nM and > 50000 nM, respectively. Also, at D(2) dopamine receptor [2] (read-out: IC50), the IC50 was > 100000 nM.
Regarding `O=C(c1cc2ccccc2[nH]1)N1CCN(CCOc2cccnc2)CC1`, the concentration for a half-maximal effect (EC50) at D(3) dopamine receptor stood at 7 nM; on D(2) dopamine receptor [1] (read-out: EC50), 570 nM. Moreover, the 50% inhibitory concentration (IC50) entry at D(2) dopamine receptor [2] is “Not Active”.
Consider `COc1ccc(OCCN2CCN(C(=O)c3cc4cccc(C)c4[nH]3)CC2)cc1`, for which the EC50 on D(3) dopamine receptor was 473 nM; on D(2) dopamine receptor [1] (read-out: EC50) it was 10100 nM. Also, on D(2) dopamine receptor [2] (read-out: IC50), the half-maximal inhibitory concentration (IC50) was > 100000 nM.
With `Cn1c(C(=O)N2CCN(CCOc3cccnc3)CC2)cc2ccccc21`, the values for the concentration giving a half-maximal response (EC50) at D(3) dopamine receptor and at D(2) dopamine receptor [1] (read-out: EC50) were 37.6 nM and 6200 nM, respectively. Further, on D(2) dopamine receptor [2], the IC50 result is “Not Active”.
As for `COc1ccc(OCCN2CCN(C(=O)c3cc4cccc(OC)c4[nH]3)CC2)cc1`, the EC50 on D(3) dopamine receptor was 980 nM; at D(2) dopamine receptor [1] (read-out: EC50), 6000 nM. For the same compound, on D(2) dopamine receptor [2] (read-out: IC50), the IC50 was > 10000 nM.
`Cc1ccc2[nH]c(C(=O)N3CCN(CCOc4cccnc4)CC3)cc2c1`: the half-maximal effective concentration (EC50) is 13 nM at D(3) dopamine receptor and 1300 nM at D(2) dopamine receptor [1] (read-out: EC50). For the same compound, the half-maximal inhibitory concentration (IC50) entry on D(2) dopamine receptor [2] is “Not Active”.
In the case of `COc1ccc(OCCN2CCN(C(C)=O)CC2)cc1`, the half-maximal effective concentration (EC50) was 9700 nM at D(3) dopamine receptor and “Not Active” on D(2) dopamine receptor [1]. For the same compound, the IC50 entry on D(2) dopamine receptor [2] is given as “Not Active”.
`O=C(c1cc2ccccc2[nH]1)N1CCN(CCOc2cncc(Cl)c2)CC1`: the EC50 on D(3) dopamine receptor worked out at 5 nM; on D(2) dopamine receptor [1] (read-out: EC50) it was 790 nM. The IC50 result on D(2) dopamine receptor [2] is “Not Active”.
Consider `COc1ccc(OCCN2CCN(C(=O)c3[nH]c4ccccc4c3C)CC2)cc1`, for which the EC50 at D(3) dopamine receptor was 1900 nM; at D(2) dopamine receptor [1] (read-out: EC50), 4400 nM. Moreover, the IC50 on D(2) dopamine receptor [2] (read-out: IC50) is > 100000 nM.
Regarding `COc1cccc(OCCN2CCN(C(=O)c3cc4cccnc4[nH]3)CC2)c1`, the EC50 at D(3) dopamine receptor was 50 nM; at D(2) dopamine receptor [1] (read-out: EC50), 128 nM. Besides, the half-inhibitory concentration (IC50) result at D(2) dopamine receptor [2] is on record as “Not Active”.
Consider `O=C(c1cc2ccccc2[nH]1)N1CCN(CCOc2ccc(Cl)cc2)CC1`, for which the concentration giving a half-maximal response (EC50) on D(3) dopamine receptor is 114 nM; at D(2) dopamine receptor [1] it was “Not Active”. Moreover, the concentration for half-maximal inhibition (IC50) on D(2) dopamine receptor [2] (read-out: IC50) is > 50000 nM.
Turning to `COc1ccc(OCCN2CCN(C(=O)c3cc4ccncc4[nH]3)CC2)cc1`, the EC50 at D(3) dopamine receptor came out at 810 nM; at D(2) dopamine receptor [1] (read-out: EC50), 7800 nM. In addition, on D(2) dopamine receptor [2] (read-out: IC50), the IC50 is > 100000 nM.
With `COc1ccc(OCCN2CCN(C(=O)c3cc4ccccc4o3)CC2)cc1`, the concentration for a half-maximal effect (EC50) result on D(2) dopamine receptor [1] is “Not Active”. The IC50 at D(2) dopamine receptor [2] (read-out: IC50) was 7700 nM. For the same compound, the Emax at D(2) dopamine receptor [3] stood at 111%.
Regarding `COc1ccc(OCCN2CCN(C(=O)C3CCCCC3)CC2)cc1`, the EC50 is > 50000 nM at D(3) dopamine receptor and “Not Active” on D(2) dopamine receptor [1]. Further, the IC50 on D(2) dopamine receptor [2] (read-out: IC50) was > 50000 nM.
As to `O=C(c1cc2ccccc2[nH]1)N1CCN(CCOc2ccncc2)CC1`, the concentration for a half-maximal effect (EC50) on D(3) dopamine receptor is 472 nM; on D(2) dopamine receptor [1] it was “Not Active”. Moreover, at D(2) dopamine receptor [2] (read-out: IC50), the IC50 is > 100000 nM.
As to `O=C(c1cc2ncccc2[nH]1)N1CCN(CCOc2cccnc2)CC1`, the EC50 was found to be 200 nM at D(3) dopamine receptor and 3000 nM on D(2) dopamine receptor [1] (read-out: EC50). Moreover, the IC50 result at D(2) dopamine receptor [2] was “Not Active”.
As to `COc1ccc(OCCN2CCN(C(=O)c3cc4cc(OC)ccc4[nH]3)CC2)cc1`, the EC50 was found to be 520 nM at D(3) dopamine receptor and 7800 nM on D(2) dopamine receptor [1] (read-out: EC50). Also, the IC50 on D(2) dopamine receptor [2] (read-out: IC50) was > 100000 nM.
